Laboratory results: patent publication US20250062039A1, “ESTIMATION OF PHARMACOKINETIC (PK) PARAMETERS OF DRUG CANDIDATES USING UNIVERSAL PK PARAMETERS BOUNDS” (Tata Consultancy Services Limited, priority 2023, published 2025)
Several values for one entry are separate records, joined by “and”; a condition that tells them apart may be missing. Equal entries are not always repeated. Where two headings read alike, the source gives them in different places.

How the values were obtained:
[1] = 2 compartment model, cited from earlier work
clinical [2] = details: human, in vivo, iv; for half-life: Selected Parameter Value
[3] = Three compartment PK model parameter estimation from etomidate PCT profile (64 bound combinations, MWDO + Nelder Mead); parameters: species or system humans
[4] = cited from earlier work; for Conc (plasma concentration): 18.3 mg intravenously, subject 60.9 kg
[5] = IV infusion 10 mg; cited from earlier work
clinical [6] = details: human, in vivo, iv
[7] = in vivo, iv, 20 mg/kg
in vivo = details: non-human primates, iv, 20 mg/kg
[8] = Published cocaine pharmacokinetics in humans, IV bolus: parameters and PCT profile (Barnett et al. 1981)
[9] = cited from earlier work; for Conc (plasma concentration): 200 mg intravenously, subject 68 kg; for Alpha / A: individual subjects W
[10] = IV Infusion, 4 mg for 5 minutes
[11] = MWDO, Upper Bound 1 of Table 18
[12] = MWDO, Upper Bound 2 of Table 18
[13] = MWDO, Upper Bound 3 of Table 18
[14] = Nelder Mead, bound combination 1
[15] = Nelder Mead, bound combination 2
[16] = Nelder Mead, bound combination 3
[17] = best set over all 64 bound combinations
[18] = 200 mg IV, two compartment model
[19] = IV bolus, Dose = 100 mg, X, Y, listed as Cocain
[20] = IV bolus, Dose = 200 mg, Z, listed as Cocain
[21] = IVBolus 200 mg, bi-exponential model (Table 6)

SMILES: OC(CCN1CCCCC1)(c1ccccc1)C1CC2C=CC1C2 (stereo not drawn) [Biperiden]
- AUC, Value [1, 10]: 62.8 ng·h/mL
- CL, Value [1, 10]: 24 mL/min/kg
- K12, Value [1, 10]: 0.1910 h⁻¹
- K21, Value [1, 10]: 0.06 h⁻¹
- T1/2 Alpha, Value [1, 10]: 1.5 h
- T1/2 beta, Value [1, 10]: 24.3 h
- V1, Value [1, 10]: 2.6 L/kg
- Ka, Value ([1]; Oral 4 mg): 2.18 h⁻¹
- clearance (clinical [2]): 24.8 mL/min/kg
- half-life (clinical [2]; T1/2 Alpha): 1.7 h
- half-life (clinical [2]; T1/2 beta): 28.2 h

SMILES: CCOC(=O)c1cncn1[C@H](C)c1ccccc1 [etomidate]
- A, Globally optimized Parameter 1 [3, 11]: 0.2958 µg/mL
- Alpha, Globally optimized Parameter 1 [3, 11]: 12.67 h⁻¹
- B, Globally optimized Parameter 1 [3, 11]: 0.1079 µg/mL
- Beta, Globally optimized Parameter 1 [3, 11]: 1.124 h⁻¹
- C, Globally optimized Parameter 1 [3, 11]: 0.02617 µg/mL
- Gamma, Globally optimized Parameter 1 [3, 11]: 0.1092 h⁻¹
- A, Globally optimized Parameter 2 [3, 12]: 0.2529 µg/mL
- Alpha, Globally optimized Parameter 2 [3, 12]: 10.44 h⁻¹
- B, Globally optimized Parameter 2 [3, 12]: 0.1149 µg/mL
- Beta, Globally optimized Parameter 2 [3, 12]: 0.351 h⁻¹
- C, Globally optimized Parameter 2 [3, 12]: 0.005408 µg/mL
- Gamma, Globally optimized Parameter 2 [3, 12]: 0.1074 h⁻¹
- A, Globally optimized Parameter 3 [3, 13]: 0.13 µg/mL
- Alpha, Globally optimized Parameter 3 [3, 13]: 5.539 h⁻¹
- B, Globally optimized Parameter 3 [3, 13]: 0.1089 µg/mL
- Beta, Globally optimized Parameter 3 [3, 13]: 0.3627 h⁻¹
- C, Globally optimized Parameter 3 [3, 13]: 0.005084 µg/mL
- Gamma, Globally optimized Parameter 3 [3, 13]: 0.0375 h⁻¹
- A, Locally Optimized parameter 1 [3, 14]: 0.3151 µg/mL
- Alpha, Locally Optimized parameter 1 [3, 14]: 11.49 h⁻¹
- B, Locally Optimized parameter 1 [3, 14]: 0.1076 µg/mL
- Beta, Locally Optimized parameter 1 [3, 14]: 0.8111 h⁻¹
- C, Locally Optimized parameter 1 [3, 14]: 0.01292 µg/mL
- Gamma, Locally Optimized parameter 1 [3, 14]: 0.03486 h⁻¹
- A, Locally Optimized parameter 2 [3, 15]: 0.3151 µg/mL
- Alpha, Locally Optimized parameter 2 [3, 15]: 11.49 h⁻¹
- B, Locally Optimized parameter 2 [3, 15]: 0.1076 µg/mL
- Beta, Locally Optimized parameter 2 [3, 15]: 0.8111 h⁻¹
- C, Locally Optimized parameter 2 [3, 15]: 0.01292 µg/mL
- Gamma, Locally Optimized parameter 2 [3, 15]: 0.03486 h⁻¹
- A, Locally Optimized parameter 3 [3, 16]: 0.3151 µg/mL
- Alpha, Locally Optimized parameter 3 [3, 16]: 11.49 h⁻¹
- B, Locally Optimized parameter 3 [3, 16]: 0.1076 µg/mL
- Beta, Locally Optimized parameter 3 [3, 16]: 0.8111 h⁻¹
- C, Locally Optimized parameter 3 [3, 16]: 0.01292 µg/mL
- Gamma, Locally Optimized parameter 3 [3, 16]: 0.03486 h⁻¹
- A, Best Parameter/Best locally optimized value [3, 17]: 0.3151 µg/mL
- A, Initial value/globally optimized value [3, 17]: 0.2703 µg/mL
- Alpha, Best Parameter/Best locally optimized value [3, 17]: 11.49 h⁻¹
- Alpha, Initial value/globally optimized value [3, 17]: 7.1437 h⁻¹
- B, Best Parameter/Best locally optimized value [3, 17]: 0.1076 µg/mL
- B, Initial value/globally optimized value [3, 17]: 0.07389 µg/mL
- Beta, Best Parameter/Best locally optimized value [3, 17]: 0.8111 h⁻¹
- Beta, Initial value/globally optimized value [3, 17]: 0.3665 h⁻¹
- C, Best Parameter/Best locally optimized value [3, 17]: 0.01292 µg/mL
- C, Initial value/globally optimized value [3, 17]: 0.01092 µg/mL
- Gamma, Best Parameter/Best locally optimized value [3, 17]: 0.03486 h⁻¹
- Gamma, Initial value/globally optimized value [3, 17]: 0.1479 h⁻¹
- Conc (plasma concentration) ([4]; Time 0.067 hr): 260 ng/mL
- Conc (plasma concentration) ([4]; Time 0.133 hr): 180 ng/mL
- Conc (plasma concentration) ([4]; Time 0.25 hr): 115 ng/mL
- Conc (plasma concentration) ([4]; Time 0.5 hr): 88 ng/mL
- Conc (plasma concentration) ([4]; Time 1 hr): 59.9 ng/mL
- Conc (plasma concentration) ([4]; Time 2 hr): 32.5 ng/mL
- Conc (plasma concentration) ([4]; Time 3 hr): 21.3 ng/mL
- Conc (plasma concentration) ([4]; Time 4 hr): 15.8 ng/mL
- Conc (plasma concentration) ([4]; Time 5 hr): 12.6 ng/mL
- Conc (plasma concentration) ([4]; Time 6 hr): 11.4 ng/mL
- Conc (plasma concentration) ([4]; Time 7 hr): 10.5 ng/mL
- Conc (plasma concentration) ([4]; Time 8 hr): 9.9 ng/mL
- Conc (plasma concentration) ([4]; Time 9 hr): 9.5 ng/mL
- Conc (plasma concentration) ([4]; Time 10 hr): 9.1 ng/mL
- A, Published parameter value ([4]; three compartment model): 0.297 µg/mL
- Alpha, Published parameter value ([4]; three compartment model): 12.02 h⁻¹
- B, Published parameter value ([4]; three compartment model): 0.117 µg/mL
- Beta, Published parameter value ([4]; three compartment model): 0.935 h⁻¹
- C, Published parameter value ([4]; three compartment model): 0.017 µg/mL
- Gamma, Published parameter value ([4]; three compartment model): 0.064 h⁻¹

SMILES: CC(C)NCC(O)COc1ccc(CCOCC2CC2)cc1 (stereo not drawn) [Betaxolol]
- AUC, Mean Value [5]: 610 ng·h/mL
- CL, Mean Value [5]: 15.1 L/h
- Lambda_Z, Mean Value [5]: 0.0415 h⁻¹
- Vz, Mean Value [5]: 5.07 L/kg
- Vd (clinical [6]): 5.81 L/kg
- clearance (clinical [6]): 300 mL/min

SMILES: COc1cc(NCc2ccc3nc(N)nc(N)c3c2C)cc(OC)c1OC [Trimetrexate]
- K10, Converted value ([7]; non-human primate): 3.096 h⁻¹
- K10, Selected Parameter Value ([7]; non-human primate): 0.0516 min⁻¹
- K12, Converted value ([7]; non-human primates): 0.87 h⁻¹
- K12, Selected Parameter Value ([7]; non-human primates): 0.0145 min⁻¹
- K13, Converted value ([7]; non-human primates): 0.0075 h⁻¹
- K13, Selected Parameter Value ([7]; non-human primates): 0.000125 min⁻¹
- K21, Converted value ([7]; non-human primates): 1.296 h⁻¹
- K21, Selected Parameter Value ([7]; non-human primates): 0.0216 min⁻¹
- K31, Converted value ([7]; non-human primates): 0.093 h⁻¹
- K31, Selected Parameter Value ([7]; non-human primates): 0.00155 min⁻¹
- V1, Converted value ([7]; non-human primates): 0.15 L/kg
- V1, Selected Parameter Value ([7]; non-human primates): 0.15 L/kg
- V2, Converted value ([7]; non-human primates): 0.079 L/kg
- V2, Selected Parameter Value ([7]; non-human primates): 0.079 L/kg
- cl, Converted value ([7]; non-human primates): 0.252 L/h
- clearance (in vivo): 4.2 mL/min
- half-life (in vivo; T1/2 alpha, Converted value): 0.305 h
- half-life (in vivo; T1/2 alpha, Selected Parameter Value): 0.305 h
- half-life (in vivo; T1/2 beta, Converted value): 1.43 h
- half-life (in vivo; T1/2 beta, Selected Parameter Value): 1.43 h

SMILES: COC(=O)[C@H]1[C@@H](OC(=O)c2ccccc2)C[C@@H]2CC[C@H]1N2C [Cocaine]
- Alpha, Selected Value ([8]; maximum over all subjects and doses 100, 200 mg (Rule 7)): 0.0532 min⁻¹
- Beta, Selected Value ([8]; maximum over all subjects and doses (Rule 7)): 0.00842 min⁻¹
- A, Published parameter value [9, 18]: 2.482 µg/mL
- Alpha, Published parameter value [9, 18]: 3.192 h⁻¹
- B, Published parameter value [9, 18]: 1.997 µg/mL
- Beta, Published parameter value [9, 18]: 0.505 h⁻¹
- Conc (plasma concentration) ([9]; Time 0.08333333 hr): 3868 ng/mL
- Conc (plasma concentration) ([9]; Time 0.33333333 hr): 2476 ng/mL
- Conc (plasma concentration) ([9]; Time 0.65 hr): 2031 ng/mL
- Conc (plasma concentration) ([9]; Time 1 hr): 1222 ng/mL
- Conc (plasma concentration) ([9]; Time 2.13333333 hr): 696 ng/mL
- Conc (plasma concentration) ([9]; Time 3.2 hr): 453 ng/mL
- Conc (plasma concentration) ([9]; Time 4.16666667 hr): 219 ng/mL
- Conc (plasma concentration) ([9]; Time 5.15 hr): 145 ng/mL
- Conc (plasma concentration) ([9]; Time 6.15 hr): 94 ng/mL
- Alpha ([9]; IV bolus, Dose = 100 mg, X, Y): 0.0135 min⁻¹ and 0.0172 min⁻¹ and 0.0147 min⁻¹
- A [9, 19]: 860 ng/mL and 558 ng/mL and 1139 ng/mL
- Alpha [9, 19]: 0.0135 min⁻¹ and 0.0172 min⁻¹ and 0.0147 min⁻¹
- B ([9]; IV bolus, Dose = 200 mg, Sub-W): 1997 ng/mL
- Beta ([9]; IV bolus, Dose = 200 mg, Sub-W): 0.00842 min⁻¹
- Alpha ([9]; IV bolus, Dose = 200 mg, Z): 0.0532 min⁻¹ and 0.00879 min⁻¹
- A [9, 20]: 2482 ng/mL and 1432 ng/mL
- Alpha [9, 20]: 0.0532 min⁻¹ and 0.00879 min⁻¹
- A, Value [9, 21]: 2482 ng/mL
- Alpha, Value [9, 21]: 0.05 min⁻¹
- B, Value [9, 21]: 1997 ng/mL
- Cmax ([9]; IVBolus 200 mg): (Cmax = 3868) ng/ml
